The source of these data is US12310975B2, “Modulators of BCL6 proteolysis and associated methods of use” (Arvinas Operations, Inc., priority 2019, dated 2025).

The target in assay [1] is T1, BCL6 (Homo sapiens (Human), UniProt P41182). Nature of the assay: Immunofluorescence high content imaging of BCL6 degradation in T47D cells. The format is cell-based. The note with it: for Dmax: T47D, maximum, class symbols A-C; for DC50: class symbols A-D, read-out: EC50 (nM)*. In a few lines:
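Read-out is BCL6 immunofluorescence quantified by high-content imaging (10×, 4 fields per well) of T47D breast cancer cells. Cells were exposed for 3 days to degrader in an 11-point, 3-fold serial dilution reaching a final top concentration of 0.1 or 1 μM.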

Assay [2] deals with T1, BCL6. Nature of the assay: BCL6 TR-FRET assay (BCL6-Avitag-Biotin / BCoR-Cy5 peptide). It is filed as binding. The note with it: class symbols A-D; read-out: IC50 (nM)***. In a few lines:
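After 30 min room-temperature preincubation of compound titrations with 2 nM biotinylated BCL6-Avitag, 100 nM Cy5-labelled BCoR peptide plus 2 nM Eu-streptavidin were added and TR-FRET read 2 h later. HEPES pH 7.5/125 mM NaCl buffer with Triton X, glutathione (or DTT) and BSA.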

One may read the Dmax as the largest share of the target that was removed. A low value points to shallow degradation. By IC50 is commonly meant the midpoint of a concentration-inhibition curve. On to `CC(=O)COc1cc2cc(Nc3nc(N4CCC(N5CCC(N(C)CCOc6ccc7c(c6)CN(C6CCC(=O)NC6=O)C7=O)C5)CC4)ncc3Cl)ccc2n(C)c1=O` (stereo not drawn) [compound 157, 3-(5-(2-((1-(1-(5-chloro-4-((1-methyl-2-oxo-3-(2-oxopropoxy)-1,2-dihydroquinolin-6-yl)amino)pyrimidin-2-yl)piperidin-4-yl)pyrrolidin-3-yl) (methyl)amino)ethoxy)-1-oxoisoindolin-2-yl)piperidine-2,6-dione], for which, in assay [1], the Dmax fell in the range of 50 to 70% and the DC50 lay within 10 to 50 nM. In assay [2], the IC50 is below 10 nM.
The like results for `CC(=O)COc1cc2cc(Nc3nc(N4CCN(C5CCN(CCCOc6ccc7c(c6)CN(C6CCC(=O)NC6=O)C7=O)C5)CC4)ncc3Cl)ccc2n(C)c1=O` (stereo not drawn) [compound 158, 3-(5-(3-(3-(4-(5-chloro-4-((1-methyl-2-oxo-3-(2-oxopropoxy)-1,2-dihydroquinolin-6-yl)amino)pyrimidin-2-yl)piperazin-1-yl)pyrrolidin-1-yl)propoxy)-1-oxoisoindolin-2-yl)piperidine-2,6-dione] were, in that order, below 50%, 10 to 50 nM and below 10 nM.
The like results for `CNC(=O)COc1cc2cc(Nc3nc(N4CCC(OCCCCOc5cc(-c6scnc6C)ccc5CNC(=O)[C@@H]5C[C@@H](O)CN5C(=O)C(c5cc(C)no5)C(C)C)CC4)ncc3Cl)ccc2n(C)c1=O` (stereo partly drawn) [compound 159, (2S,4R)-N-(2-(4-((1-(5-chloro-4-((1-methyl-3-(2-(methylamino)-2-oxoethoxy)-2-oxo-1,2-dihydroquinolin-6-yl)amino)pyrimidin-2-yl)piperidin-4-yl)oxy)butoxy)-4-(4-methylthiazol-5-yl)benzyl)-4-hydroxy-1-(3-methyl-2-(3-methylisoxazol-5-yl)butanoyl)pyrrolidine-2-carboxamide] were, in that order, below 50%, above 100 nM and 10 to 50 nM.
For the compound `CC(=O)COc1cc2cc(Nc3nc(N4CCN(C5CCN(c6ccc7c(c6)C(=O)N(C6CCC(=O)NC6=O)C7=O)CC5)CC4)ncc3Cl)ccc2n(C)c1=O` (stereo not drawn) [compound 160, 5-(4-(4-(5-chloro-4-((1-methyl-2-oxo-3-(2-oxopropoxy)-1,2-dihydroquinolin-6-yl)amino)pyrimidin-2-yl)piperazin-1-yl)piperidin-1-yl)-2-(2,6-dioxopiperidin-3-yl)isoindoline-1,3-dione], in assay [1], the Dmax is 50 to 70% and the DC50 lay in the range of 10 to 50 nM. Besides, the IC50 in assay [2] was 10 to 50 nM.
For the compound `CC(=O)COc1cc2cc(Nc3nc(N4CCN(C5CCCN(c6ccc7c(c6)C(=O)N(C6CCC(=O)NC6=O)C7=O)C5)CC4)ncc3Cl)ccc2n(C)c1=O` (stereo not drawn) [compound 161, 5-(3-(4-(5-chloro-4-((1-methyl-2-oxo-3-(2-oxopropoxy)-1,2-dihydroquinolin-6-yl)amino)pyrimidin-2-yl)piperazin-1-yl)piperidin-1-yl)-2-(2,6-dioxopiperidin-3-yl)isoindoline-1,3-dione], in assay [1], the Dmax was below 50% and the DC50 was in the range of 10 to 50 nM. The IC50 in assay [2] fell in the range of 10 to 50 nM.
As for `CC(=O)COc1cc2cc(Nc3nc(N4CCC(CCN5CCN(c6ccc7c(c6)C(=O)N(C6CCC(=O)NC6=O)C7=O)CC5)CC4)ncc3Cl)ccc2n(C)c1=O` (stereo not drawn) [compound 162, 5-(4-(2-(1-(5-chloro-4-((1-methyl-2-oxo-3-(2-oxopropoxy)-1,2-dihydroquinolin-6-yl)amino)pyrimidin-2-yl)piperidin-4-yl)ethyl)piperazin-1-yl)-2-(2,6-dioxopiperidin-3-yl)isoindoline-1,3-dione], in assay [1], the Dmax is below 50% and the DC50 was in the range of 10 to 50 nM. The 50% inhibitory concentration (IC50) in assay [2] was 10 to 50 nM.
